# Experimental data taken from patent publication US5387671A, “Hexa- and heptapeptide anaphylatoxin-receptor ligands” (Abbott Laboratories, priority 1990, dated 1995).
# Numbered stars: 1 amine (or outer) side, 2 acyl side, 3 side chain; on linkers, the order of the positions; unused ones are H or OH. Square brackets hold non-standard residues; d marks the D form. Peptide text beside a SMILES is read from it. * marks the point of attachment. X1 = N=C(N)NCCC[C@@H](NC[C@H](Cc1ccccc1)N*)C(=O)O; X4 = NCCCC[C@@H](CN1CCC[C@H]1C(=O)[*:2])N[*:1]; X2 = CN(CCCCC(Cc1ccccc1)C(=O)[*:2])[*:1]; X3 = CN(C(CCCc1ccccc1)C(=O)[*:2])[*:1]; d(β3hF) = N[C@@H](CC(=O)O)Cc1ccccc1; NMeCha = CN[C@@H](CC1CCCCC1)C(=O)O; NMeF = CN[C@@H](Cc1ccccc1)C(=O)O; NMeGABA = CN(CCCC(=O)[*:2])[*:1]; Cha = N[C@@H](CC1CCCCC1)C(=O)O; dCha = N[C@H](CC1CCCCC1)C(=O)O; NMeA = CN[C@@H](C)C(=O)O; Nle = CCCC[C@H](N)C(=O)O; Aze = O=C(O)[C@@H]1CCN1; Ahx = NCCCCCC(=O)O; βAla = NCCC(=O)O; Sar = CNCC(=O)O
# Biological target: T1, C5a Receptor (Homo sapiens, UniProt P21730)
# T1 construct: 2.5-25 ug/mL of purified PMNL membrane fragments; endogenous in cells; host or cells: PMNL (polymorphonuclear leukocytes), purified membrane fragments
# T1 sequence (P21730 1-350): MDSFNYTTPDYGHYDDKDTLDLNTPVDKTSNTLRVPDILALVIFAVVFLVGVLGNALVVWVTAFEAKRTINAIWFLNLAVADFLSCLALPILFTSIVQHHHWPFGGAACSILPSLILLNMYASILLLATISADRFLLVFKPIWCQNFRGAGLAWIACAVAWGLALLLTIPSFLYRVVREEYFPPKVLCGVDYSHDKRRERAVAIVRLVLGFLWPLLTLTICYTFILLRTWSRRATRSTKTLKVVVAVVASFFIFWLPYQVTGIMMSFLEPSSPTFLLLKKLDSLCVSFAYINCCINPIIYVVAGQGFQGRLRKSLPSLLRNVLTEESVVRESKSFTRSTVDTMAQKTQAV
# Experiment: Anaphylatoxin Receptor Binding Ki Determination (inhibition of 125I-C5a binding to PMNL membrane fragments)
# Details: 0.03-1 nM 125I-C5a; 2.5-25 ug/mL purified PMNL membrane fragments; filtration; read-out: In vitro C5a Receptor Binding Potency Ki
# Text: Free and membrane-bound ligand were separated by filtration.
row,Compound,Ki
1,"CN[C@@H](Cc1ccccc1)C(=O)N[C@@H](CCCCN)C(=O)N1CCC[C@H]1C(=O)N[C@H](CC1CCCCC1)C(=O)N[C@@H](Cc1ccccc1)C(C)N[C@@H](CCCNC(=N)N)C(=O)O (mixture of isomers) [Example 143, (N-Methyl)Phenylalanyl-Lysyl-Prolyl-{(2R)-2-Amino-3-cyclohexylpropanoyl}-Phenylalanyl-.PSI.{(R/S)CH(CH3)NH}-Arginyl-OH]",4.2 µM
2,"CN[C@@H](Cc1ccccc1)C(=O)N[C@@H](CCCCN)C(=O)N1CCC[C@H]1C(=O)N[C@H](CC1CCCCC1)C(=O)N[C@@H](Cc1ccccc1)C(=O)N[C@@H](CC(=O)O)Cc1ccccc1 [Example 170, (N-Methyl)Phenylalanyl-Lysyl-Prolyl-{(2R)-2-Amino-3-cyclohexylpropanoyl}-Phenylalanyl-{(3R)-Amino-4-phenylbutanoic acid}] (H-[NMeF]KP[dCha]F[d(β3hF)]-OH)",2.6 µM
3,"CN[C@@H](Cc1ccccc1)C(=O)N[C@@H](CCCCN)C(=O)N(C)C(CCCc1ccccc1)C(=O)N[C@H](CC1CCCCC1)C(=O)N[C@@H](Cc1ccccc1)C(=O)N[C@H](CCCNC(=N)N)C(=O)O (stereo partly drawn) [Example 156, (N-Methyl)Phenylalanyl-Lysyl-{(2R/S)-2-Methylamino-5-phenylpentanoyl}-{(2R)-2-Amino-3-cyclohexylpropanoyl}-Phenylalanyl-DArginyl-OH] (H-[NMeF]K[X3][dCha]F[dR]-OH)",0.66 µM
4,"CN[C@@H](Cc1ccccc1)C(=O)N[C@@H](CCCCN)C(=O)N(C)[C@@H](Cc1ccccc1)C(=O)N[C@H](CC1CCCCC1)C(=O)N[C@@H](CC1CCCCC1)C(=O)N[C@H](CCCNC(=N)N)C(=O)O [Example 61, (N-Methyl)Phenylalanyl-Lysyl-(N-Methyl)Phenylalanyl-{(2R)-2-Amino-3-cyclohexylpropanoyl}-{(2S)-2-Amino-3-cyclohexylpropanoyl}-DArginyl-OH] (H-[NMeF]K[NMeF][dCha][Cha][dR]-OH)",0.22 µM
5,"CN[C@@H](Cc1ccccc1)C(=O)N[C@@H](CCCCN)CN1CCC[C@H]1C(=O)N[C@H](CC1CCCCC1)C(=O)N[C@@H](CC1CCCCC1)C(=O)N[C@H](CCCNC(=N)N)C(=O)O [Example 79, (N-Methyl)Phenylalanyl-Lysyl-.PSI.{CH2 NH}-Prolyl-{(2R)-2-Amino-3-cyclohexylpropanoyl}-{(2S)-2-Amino-3-cyclohexylpropanoyl}-DArginyl-OH] (H-[NMeF][X4][dCha][Cha][dR]-OH)",14.5 µM
6,"CN[C@@H](Cc1ccccc1)C(=O)N[C@@H](CCCCN)C(=O)N1CCC[C@H]1C(=O)N[C@H](CC1CCCCC1)C(=O)N[C@H](CN[C@H](CCCNC(=N)N)C(=O)O)Cc1ccccc1 [Example 2, (N-Methyl)Phenylalanyl-Lysyl-Prolyl-{(2R)-2-Amino-3-cyclohexylpropanoyl}-Phenylalanyl-.PSI.(CH2 NH)-DArginyl-OH] (H-[NMeF]KP[dCha]-X1)",1 µM
7,"CC(C)C[C@H](NC(=O)[C@H](CC1CCCCC1)NC(=O)CCNC(=O)[C@H](CCCCN)NC(=O)[C@@H](N)Cc1ccccc1)C(=O)N[C@H](C)C(=O)N[C@@H](CCCNC(=N)N)C(=O)O [Example 7, H-Phenylalanyl-Lysyl-{3-Aminopropanoyl}-{(2S)-2-Amino-3-cyclohexylpropanoyl}-Leucyl-DAlanyl-Arginyl-OH] (H-FK[βAla][Cha]L[dA]R-OH)",2.2 µM
8,"C[C@H](NC(=O)[C@H](CCCCN)NC(=O)[C@@H](N)Cc1ccccc1)C(=O)N[C@@H](CC1CCCCC1)C(=O)NCCC(=O)N[C@H](CCCNC(=N)N)C(=O)O [Example 19, H-Phenylalanyl-Lysyl-Alanyl-{(2S)-2-Amino-3-cyclohexylpropanoyl}-{3-Aminopropanoyl}-DArginyl-OH] (H-FKA[Cha][βAla][dR]-OH)",130 µM
9,"CC(C)C[C@H](NC(=O)[C@H](CC1CCCCC1)NC(=O)[C@H](C)N(C)C(=O)[C@H](CCCCN)NC(=O)[C@@H](N)Cc1ccccc1)C(=O)N[C@H](C)C(=O)N[C@@H](CCCNC(=N)N)C(=O)O [Example 17, H-Phenylalanyl-Lysyl-(N-Methyl)Alanyl-{(2S)-2-Amino-3-cyclohexylpropanoyl}-Leucyl-DAlanyl-Arginyl-OH] (H-FK[NMeA][Cha]L[dA]R-OH)",2.5 µM
10,"CN[C@@H](Cc1ccccc1)C(=O)N[C@@H](CCCCN)C(=O)N(C)[C@@H](C)C(=O)N[C@H](CC1CCCCC1)C(=O)N[C@@H](CC1CCCCC1)C(=O)N[C@H](CCCNC(=N)N)C(=O)O [Example 34, (N-Methyl)Phenylalanyl-Lysyl-(N-Methyl)Alanyl-{(2R)-2-Amino-3-cyclohexylpropanoyl}-{(2S)-2-Amino-3-cyclohexylpropanoyl}-DArginyl-OH] (H-[NMeF]K[NMeA][dCha][Cha][dR]-OH)",0.034 µM
11,CN[C@@H](Cc1ccccc1)C(=O)N[C@@H](CCCCN)C(=O)N(C)CCCCC(Cc1ccccc1)C(=O)N[C@@H](Cc1ccccc1)C(=O)N[C@H](CCCNC(=N)N)C(=O)O (stereo partly shown) [Example 134] (H-[NMeF]K[X2]F[dR]-OH),6.8 µM
12,"C[C@H](NC(=O)[C@H](CCCCN)NC(=O)[C@@H](N)Cc1ccccc1)C(=O)N[C@H](CC1CCCCC1)C(=O)N(C)[C@@H](CC1CCCCC1)C(=O)N[C@H](CCCNC(=N)N)C(=O)O [Example 40, H-Phenylalanyl-Lysyl-Alanyl-{(2R)-2-Amino-3-cyclohexylpropanoyl}-{(N-Methyl)(2S)-2-Amino-3cyclohexylpropanoyl}-DArginyl-OH] (H-FKA[dCha][NMeCha][dR]-OH)",0.59 µM
13,"CC(C)C[C@H](NC(=O)[C@H](CCC(N)=O)NC(=O)CCCCCNC(=O)[C@@H](N)Cc1c[nH]cn1)C(=O)NCC(=O)N[C@@H](CCCNC(=N)N)C(=O)O [Example 4, H-Histidyl-{6-Aminohexanoyl}-Glutaminyl-Leucyl-Glycyl-Arginyl-OH] (H-H[Ahx]QLGR-OH)",180 µM
14,CN[C@@H](Cc1ccccc1)C(=O)N[C@@H](CCCCN)C(=O)N1CCC[C@H]1CN[C@H](CC1CCCCC1)C(=O)N[C@@H](Cc1ccccc1)C(=O)N[C@H](CCCNC(=N)N)C(=O)O [Example 103],0.36 µM
15,"N=C(N)NCCC[C@@H](NC(=O)[C@H](CC1CCCCC1)NC(=O)[C@@H](CC1CCCCC1)NC(=O)[C@@H]1CCN1C(=O)[C@H](CCCCN)NC(=O)[C@@H](N)Cc1ccccc1)C(=O)O [Example 43, H-Phenylalanyl-Lysyl-{(2S)-Azetidine-2-carbonyl}-{(2R)-2-Amino-3-cyclohexylpropanoyl}-{(2S)-2-Amino-3-cyclohexylpropanoyl}-DArginyl-OH] (H-FK[Aze][dCha][Cha][dR]-OH)",0.023 µM
16,"CCCC[C@H](NC(=O)[C@H](Cc1ccccc1)NC)C(=O)N(C)[C@@H](C)C(=O)N[C@H](CC1CCCCC1)C(=O)N[C@@H](CC1CCCCC1)C(=O)N[C@H](CCCNC(=N)N)C(=O)O [Example 62, (N-Methyl)Phenylalanyl-Norleucyl-(N-Methyl)Alanyl-{(2R)-2-Amino-3-cyclohexylpropanoyl}-{(2S)-2-Amino-3-cyclohexylpropanoyl}-DArginyl-OH] (H-[NMeF][Nle][NMeA][dCha][Cha][dR]-OH)",0.26 µM
17,"CN[C@@H](Cc1ccccc1)C(=O)N[C@@H](CCCCN)C(=O)N(C)CCCC(=O)N[C@@H](Cc1ccccc1)C(=O)N[C@H](CCCNC(=N)N)C(=O)O [Example 121, (N-Methyl)Phenylalanyl-Lysyl-{4-(Methylamino)butanoyl}-Phenylalanyl-DArginyl-OH] (H-[NMeF]K[NMeGABA]F[dR]-OH)",21 µM
18,"CN(CC(=O)N[C@H](CC1CCCCC1)C(=O)N[C@@H](CC1CCCCC1)C(=O)N[C@H](CCCNC(=N)N)C(=O)O)C(=O)[C@H](CCCCN)NC(=O)[C@@H](N)Cc1ccccc1 [Example 56, H-Phenylalanyl-Lysyl-Sarcosyl-{(2R)-2-Amino-3-cyclohexylpropanoyl}-{(2S)-2-Amino-3-cyclohexylpropanoyl}-DArginyl-OH] (H-FK[Sar][dCha][Cha][dR]-OH)",0.014 µM
19,"C[C@H](NC(=O)[C@H](CCCCN)NC(=O)[C@@H](N)Cc1ccccc1)C(=O)N[C@@H](CC1CCCCC1)C(=O)NCCCCCC(=O)N[C@@H](CCCNC(=N)N)C(=O)O [Example 10, H-Phenylalanyl-Lysyl-Alanyl-{(2S)-2-Amino-3-cyclohexylpropanoyl}-{6-Aminohexanoyl}-Arginyl-OH] (H-FKA[Cha][Ahx]R-OH)",85 µM
